The IC50 is the concentration at which inhibition is half-maximal.

Where a chain is given by its changes, count along the chain named.

Test [1] has as its target T1, rM1 (Rattus norvegicus, UniProt P08482).
T1 sequence (P08482 1-460): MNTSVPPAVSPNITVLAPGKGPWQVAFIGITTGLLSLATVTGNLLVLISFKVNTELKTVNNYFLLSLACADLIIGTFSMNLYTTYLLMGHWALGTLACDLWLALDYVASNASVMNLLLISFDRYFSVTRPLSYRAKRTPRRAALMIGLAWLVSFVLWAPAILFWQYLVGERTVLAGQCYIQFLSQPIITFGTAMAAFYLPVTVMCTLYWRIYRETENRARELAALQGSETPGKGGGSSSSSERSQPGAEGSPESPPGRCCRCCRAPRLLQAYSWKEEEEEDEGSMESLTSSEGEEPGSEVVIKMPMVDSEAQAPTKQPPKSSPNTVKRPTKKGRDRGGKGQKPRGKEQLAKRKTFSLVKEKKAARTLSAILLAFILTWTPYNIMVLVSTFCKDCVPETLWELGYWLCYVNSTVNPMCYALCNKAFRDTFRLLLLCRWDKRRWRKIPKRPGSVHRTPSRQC
The test can be described thus: rat M1 functional assay. It is filed as cell-based. The conditions noted are these: read-out: rM1 IC50, printed as rM1-rM4.

The target in test [2] is T2, rM2 (Rattus norvegicus, UniProt P10980).
T2 sequence (P10980 1-466): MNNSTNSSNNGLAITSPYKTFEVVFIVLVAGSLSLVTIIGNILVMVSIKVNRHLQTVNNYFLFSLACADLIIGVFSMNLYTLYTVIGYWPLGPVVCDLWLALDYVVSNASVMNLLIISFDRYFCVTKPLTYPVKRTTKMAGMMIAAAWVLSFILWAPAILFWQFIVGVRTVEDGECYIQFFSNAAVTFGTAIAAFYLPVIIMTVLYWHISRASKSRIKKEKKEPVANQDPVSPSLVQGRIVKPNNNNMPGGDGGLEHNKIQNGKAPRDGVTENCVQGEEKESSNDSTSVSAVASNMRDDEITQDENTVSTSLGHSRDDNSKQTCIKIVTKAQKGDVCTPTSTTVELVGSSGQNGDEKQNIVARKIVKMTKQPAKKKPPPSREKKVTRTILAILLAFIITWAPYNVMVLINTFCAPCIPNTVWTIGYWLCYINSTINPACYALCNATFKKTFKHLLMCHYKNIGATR
As to the kind of experiment: rat M2 functional assay. The format is cell-based. The conditions noted are these: read-out: rM2 IC50, printed as rM1-rM4.

For test [3], the target named is rM3 (Rattus norvegicus, UniProt P08483). As to the kind of experiment: rat M3 functional assay. The conditions noted are these: read-out: rM3 IC50, printed as rM1-rM4. It is filed as cell-based.
The target in test [4] is T3, rM4 (Rattus norvegicus, UniProt P08485).
T3 sequence (P08485 1-478): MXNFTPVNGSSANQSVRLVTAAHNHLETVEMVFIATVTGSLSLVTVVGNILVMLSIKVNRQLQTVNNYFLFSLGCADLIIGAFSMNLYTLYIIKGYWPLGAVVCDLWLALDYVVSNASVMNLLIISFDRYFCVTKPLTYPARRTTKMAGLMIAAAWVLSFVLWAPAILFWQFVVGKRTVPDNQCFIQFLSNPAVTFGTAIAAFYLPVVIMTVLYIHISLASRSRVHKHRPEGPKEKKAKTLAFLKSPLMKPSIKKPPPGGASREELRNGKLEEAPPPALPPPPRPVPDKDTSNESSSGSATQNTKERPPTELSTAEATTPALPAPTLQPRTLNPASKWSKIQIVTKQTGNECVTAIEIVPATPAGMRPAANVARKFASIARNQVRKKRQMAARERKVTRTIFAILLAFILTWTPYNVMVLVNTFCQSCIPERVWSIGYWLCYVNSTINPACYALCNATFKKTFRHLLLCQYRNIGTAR
As to the kind of experiment: rat M4 functional assay. It is filed as cell-based. The conditions noted are these: read-out: rM4 IC50, printed as rM1-rM4.

Test [5] has as its system 68 GPCRs, ion channels and transporters. As to the kind of experiment: Eurofins radioligand binding panel. The conditions noted are these: 10 μM, 68 targets.
Test [6] addresses T4, human M1 (Homo sapiens, UniProt P11229).
T4 sequence (P11229 1-460): T1 sequence (P08482 1-460) with V5A, S254T, S309P, K320R, G337A, V413I
The conditions noted are these: read-out: hM1 IC50; printed as hM1-M4; cited from earlier work.

Test [7] addresses T5, human M2 (Homo sapiens, UniProt P08172).
T5 sequence (P08172 1-466): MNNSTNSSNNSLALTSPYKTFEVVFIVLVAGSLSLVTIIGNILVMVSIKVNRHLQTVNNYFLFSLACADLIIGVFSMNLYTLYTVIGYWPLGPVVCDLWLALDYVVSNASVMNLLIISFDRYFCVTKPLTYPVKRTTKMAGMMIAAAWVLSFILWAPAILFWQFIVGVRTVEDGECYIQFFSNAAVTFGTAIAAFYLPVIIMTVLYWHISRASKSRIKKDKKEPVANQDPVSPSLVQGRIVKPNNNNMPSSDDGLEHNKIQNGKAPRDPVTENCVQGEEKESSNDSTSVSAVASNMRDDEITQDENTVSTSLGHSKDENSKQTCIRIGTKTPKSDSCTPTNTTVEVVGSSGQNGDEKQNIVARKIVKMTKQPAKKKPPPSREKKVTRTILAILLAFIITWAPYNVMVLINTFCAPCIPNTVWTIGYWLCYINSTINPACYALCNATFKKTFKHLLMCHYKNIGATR
The conditions noted are these: read-out: hM2 IC50; printed as hM1-M4; cited from earlier work.

Test [8] has as its target human M3 (Homo sapiens, UniProt P20309). The conditions noted are these: read-out: hM3 IC50; printed as hM1-M4; cited from earlier work.
The target in test [9] is T6, human M4 (Homo sapiens, UniProt P08173).
T6 sequence (P08173 1-479): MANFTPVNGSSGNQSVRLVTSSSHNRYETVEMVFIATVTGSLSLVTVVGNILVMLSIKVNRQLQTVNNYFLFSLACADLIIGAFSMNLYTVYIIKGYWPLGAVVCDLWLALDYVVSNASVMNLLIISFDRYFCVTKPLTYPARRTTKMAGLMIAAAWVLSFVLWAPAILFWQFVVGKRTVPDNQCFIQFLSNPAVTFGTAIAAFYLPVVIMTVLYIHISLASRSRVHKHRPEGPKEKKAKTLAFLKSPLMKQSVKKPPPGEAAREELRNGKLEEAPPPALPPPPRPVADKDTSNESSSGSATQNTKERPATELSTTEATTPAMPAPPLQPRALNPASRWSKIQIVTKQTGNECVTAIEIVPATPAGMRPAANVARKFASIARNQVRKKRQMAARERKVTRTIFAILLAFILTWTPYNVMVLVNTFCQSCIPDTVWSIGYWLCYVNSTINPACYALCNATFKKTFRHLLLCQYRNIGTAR
The conditions noted are these: read-out: hM4 IC50; printed as hM1-M4; cited from earlier work.

Chain of rM3 (P08483 whole entry): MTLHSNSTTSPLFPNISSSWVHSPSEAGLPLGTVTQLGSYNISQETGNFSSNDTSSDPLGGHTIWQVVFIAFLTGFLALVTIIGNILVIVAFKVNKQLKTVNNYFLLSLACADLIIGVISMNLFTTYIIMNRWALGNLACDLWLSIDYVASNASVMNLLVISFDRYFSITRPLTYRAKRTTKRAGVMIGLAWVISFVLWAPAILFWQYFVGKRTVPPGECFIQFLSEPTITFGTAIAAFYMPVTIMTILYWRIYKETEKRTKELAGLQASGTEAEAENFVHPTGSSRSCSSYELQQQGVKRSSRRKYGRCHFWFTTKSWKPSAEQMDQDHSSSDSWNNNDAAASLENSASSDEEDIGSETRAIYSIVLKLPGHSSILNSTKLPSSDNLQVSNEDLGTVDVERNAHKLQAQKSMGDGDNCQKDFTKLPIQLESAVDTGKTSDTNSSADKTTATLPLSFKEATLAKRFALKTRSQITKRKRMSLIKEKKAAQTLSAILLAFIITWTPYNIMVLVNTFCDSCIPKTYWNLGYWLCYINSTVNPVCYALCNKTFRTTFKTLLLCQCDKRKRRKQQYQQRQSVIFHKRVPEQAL
Chain of human M3 (P20309 whole entry): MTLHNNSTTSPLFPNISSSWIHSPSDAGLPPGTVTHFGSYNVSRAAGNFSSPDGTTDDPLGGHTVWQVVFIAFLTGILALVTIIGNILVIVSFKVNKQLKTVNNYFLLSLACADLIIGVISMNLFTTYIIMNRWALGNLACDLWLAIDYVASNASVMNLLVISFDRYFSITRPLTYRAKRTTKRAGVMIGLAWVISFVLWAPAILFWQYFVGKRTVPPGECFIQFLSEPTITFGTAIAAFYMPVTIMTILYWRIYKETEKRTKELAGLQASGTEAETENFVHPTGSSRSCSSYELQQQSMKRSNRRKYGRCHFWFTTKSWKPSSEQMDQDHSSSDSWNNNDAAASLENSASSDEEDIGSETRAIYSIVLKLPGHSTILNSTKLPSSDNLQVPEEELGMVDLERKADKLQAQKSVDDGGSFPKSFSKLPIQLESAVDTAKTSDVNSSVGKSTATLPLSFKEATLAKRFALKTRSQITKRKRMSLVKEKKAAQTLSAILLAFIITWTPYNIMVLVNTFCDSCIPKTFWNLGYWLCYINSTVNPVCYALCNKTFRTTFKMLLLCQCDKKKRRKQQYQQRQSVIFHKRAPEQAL

In the case of `CC(=O)c1cccc(OCc2cc(C(=O)N(C)[C@@H](C)c3ccccn3)no2)c1` [(S)-16], the IC50 in test [1], in test [2], in [3] and in test [4] was greater than 30 µM each time. Also, the “inhibition in radioligand binding panel” value in test [5] is no more than 50%.
On to `O=C(c1ccc(F)c(F)c1)N1CCN2C(=O)c3ccccc3[C@@]12c1ccc(Cl)cc1` [compound 5], for which the concentration for half-maximal inhibition (IC50) in test [6], in [7], in [8] and in test [9] was greater than 30 µM each time.

The record behind these values is PMC4116439 (ChemMedChem, 2014).
